Reference: ChEMBL document CHEMBL5303573, “Mapping human microbiome drug metabolism by gut bacteria and their genes” (Nature, 2019)

How the values were obtained:
[1] = The drug is tested on Proteus penneri strain: ATCC35198 for biotransformation. The drug concentrations were measured before and after a 12-h incubation by liquid-chromatography-coupled mass spectrometry (LC–MS); details: 2 µM
[2] = The drug is tested on Enterococcus faecalis strain: V583 for biotransformation. The drug concentrations were measured before and after a 12-h incubation by liquid-chromatography-coupled mass spectrometry (LC–MS); details: 2 µM
[3] = anaerostipes sp., 12 h, 2 µM
[4] = The drug is tested on Bacteroides fragilis strain: T(B)9 for biotransformation. The drug concentrations were measured before and after a 12-h incubation by liquid-chromatography-coupled mass spectrometry (LC–MS); details: 2 µM
[5] = victivallis vadensis, 12 h, 2 µM
[6] = bacteroides thetaiotaomicron, 12 h, 2 µM
[7] = bacteroides fragilis, 12 h, 2 µM
[8] = The drug is tested on Eubacterium biforme strain: DSM3989 for biotransformation. The drug concentrations were measured before and after a 12-h incubation by liquid-chromatography-coupled mass spectrometry (LC–MS); details: holdemanella biformis, 2 µM
[9] = The drug is tested on Providencia alcalifaciens strain: DSM30120 for biotransformation. The drug concentrations were measured before and after a 12-h incubation by liquid-chromatography-coupled mass spectrometry (LC–MS); details: 2 µM
[10] = The drug is tested on Salmonella typhimurium strain: LT2 for biotransformation. The drug concentrations were measured before and after a 12-h incubation by liquid-chromatography-coupled mass spectrometry (LC–MS); details: salmonella enterica subsp. enterica, 2 µM
GDSL-like protein [11] = target: T1, GDSL-like protein (Collinsella aerofaciens, UniProt A4E7D0); test: (§1) The drug is tested on Collinsella aerofaciens strain: ATCC25986 for biotransformation. The drug concentrations were measured before and after a 12-h incubation by liquid-chromatography-coupled mass spectrometry (LC–MS); format: ADME; design: dose 2 uM; details: 2 µM
T1 sequence (A4E7D0 whole entry): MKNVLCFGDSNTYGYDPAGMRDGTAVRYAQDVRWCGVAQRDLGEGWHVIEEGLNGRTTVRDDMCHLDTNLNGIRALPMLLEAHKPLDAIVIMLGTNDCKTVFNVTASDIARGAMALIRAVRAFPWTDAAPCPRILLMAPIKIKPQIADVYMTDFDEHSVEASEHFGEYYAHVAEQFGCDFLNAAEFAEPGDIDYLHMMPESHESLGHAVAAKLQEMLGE

[12] = target: T2, Pyridine nucleotide-disulfide oxidoreductase (Collinsella aerofaciens, UniProt A4EBM5); test: as §1; format: ADME; design: dose 2 uM; details: 2 µM
T2 sequence (A4EBM5 whole entry): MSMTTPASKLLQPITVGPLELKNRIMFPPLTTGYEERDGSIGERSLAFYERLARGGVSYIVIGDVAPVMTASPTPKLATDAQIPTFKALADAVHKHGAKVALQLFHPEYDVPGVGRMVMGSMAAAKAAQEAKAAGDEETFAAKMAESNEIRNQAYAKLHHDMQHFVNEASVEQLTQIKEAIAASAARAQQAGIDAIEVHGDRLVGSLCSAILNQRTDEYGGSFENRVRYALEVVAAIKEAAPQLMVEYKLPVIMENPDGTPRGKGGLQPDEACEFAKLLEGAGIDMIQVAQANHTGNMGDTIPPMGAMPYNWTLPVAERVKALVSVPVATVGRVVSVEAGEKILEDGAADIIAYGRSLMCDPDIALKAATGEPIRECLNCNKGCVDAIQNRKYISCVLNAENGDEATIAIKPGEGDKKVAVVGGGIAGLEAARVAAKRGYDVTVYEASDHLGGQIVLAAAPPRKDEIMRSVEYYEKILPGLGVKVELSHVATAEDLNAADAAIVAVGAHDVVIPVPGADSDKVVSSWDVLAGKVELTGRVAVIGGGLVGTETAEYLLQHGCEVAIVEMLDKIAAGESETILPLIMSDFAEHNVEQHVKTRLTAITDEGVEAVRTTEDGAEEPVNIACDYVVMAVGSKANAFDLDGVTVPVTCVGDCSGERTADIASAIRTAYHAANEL

Flavodoxin = target: T3, Flavodoxin (Collinsella aerofaciens, UniProt A4ED08); test: as §1; format: ADME; design: dose 2 uM; details: 2 µM
T3 sequence (A4ED08 whole entry): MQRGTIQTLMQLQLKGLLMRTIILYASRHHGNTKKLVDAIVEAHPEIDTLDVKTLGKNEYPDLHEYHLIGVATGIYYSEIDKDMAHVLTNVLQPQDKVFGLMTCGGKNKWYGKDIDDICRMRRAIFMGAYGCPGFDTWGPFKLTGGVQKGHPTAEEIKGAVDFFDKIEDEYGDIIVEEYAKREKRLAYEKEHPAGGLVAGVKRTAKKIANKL

Diguanylate cyclase = target: T4, Diguanylate cyclase (Collinsella aerofaciens, UniProt A4EB91); test: as §1; format: ADME; design: dose 2 uM; details: 2 µM
T4 sequence (A4EB91 whole entry): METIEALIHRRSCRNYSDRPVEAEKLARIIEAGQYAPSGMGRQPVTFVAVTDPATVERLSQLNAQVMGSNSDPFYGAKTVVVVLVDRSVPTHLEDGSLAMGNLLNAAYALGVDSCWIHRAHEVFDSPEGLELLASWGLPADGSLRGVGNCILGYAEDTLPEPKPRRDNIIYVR

GDSL-like protein [13] = target: T5, GDSL-like protein (Collinsella aerofaciens, UniProt A4E8S4); test: as §1; format: ADME; design: dose 2 uM; details: 2 µM
T5 sequence (A4E8S4 whole entry): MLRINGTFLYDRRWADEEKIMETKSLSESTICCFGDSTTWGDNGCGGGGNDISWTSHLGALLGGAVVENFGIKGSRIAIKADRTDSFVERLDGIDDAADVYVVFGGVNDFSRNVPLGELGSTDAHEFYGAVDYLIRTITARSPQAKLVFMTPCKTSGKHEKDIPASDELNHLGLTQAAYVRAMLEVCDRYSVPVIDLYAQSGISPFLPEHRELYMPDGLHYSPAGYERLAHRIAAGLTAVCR

[14] = The drug is tested on Eggerthella lenta strain: ATCC25559 for biotransformation. The drug concentrations were measured before and after a 12-h incubation by liquid-chromatography-coupled mass spectrometry (LC–MS); details: 2 µM
[15] = clostridioides difficile, 12 h, 2 µM
Description: The drug is tested on Clostridium difficile strain: 120 for biotransformation. The drug concentrations were measured before and after a 12-h incubation by liquid-chromatography-coupled mass spectrometry (LC–MS)

[16] = The drug is tested on Clostridium spiroforme strain: DSM1552 for biotransformation. The drug concentrations were measured before and after a 12-h incubation by liquid-chromatography-coupled mass spectrometry (LC–MS); details: thomasclavelia spiroformis, 2 µM
[17] = The drug is tested on Clostridium hathewayi strain: DSM13479 for biotransformation. The drug concentrations were measured before and after a 12-h incubation by liquid-chromatography-coupled mass spectrometry (LC–MS); details: hungatella hathewayi, 2 µM
[18] = roseburia intestinalis, 12 h, 2 µM
Description: The drug is tested on Roseburia intestinalis strain: L1-82 for biotransformation. The drug concentrations were measured before and after a 12-h incubation by liquid-chromatography-coupled mass spectrometry (LC–MS)

SMILES | Bacterial Biotransformation [1] | Bacterial Biotransformation [2] | Bacterial Biotransformation [3] | Bacterial Biotransformation [4] | Bacterial Biotransformation [5] | Bacterial Biotransformation [6] | Bacterial Biotransformation [7] | Bacterial Biotransformation [8] | Bacterial Biotransformation [9] | Bacterial Biotransformation [10] | Bacterial Biotransformation (GDSL-like protein [11]) | Bacterial Biotransformation [12] | Bacterial Biotransformation (Flavodoxin) | Bacterial Biotransformation (Diguanylate cyclase) | Bacterial Biotransformation (GDSL-like protein [13]) | Bacterial Biotransformation [14] | Bacterial Biotransformation [15] | Bacterial Biotransformation [16] | Bacterial Biotransformation [17] | Bacterial Biotransformation [18]
COc1ccc(CCN(C)CCCC(C#N)(c2ccc(OC)c(OC)c2)C(C)C)cc1OC (centres undefined) | Compound NOT metabolized | Compound NOT metabolized | Compound NOT metabolized | Compound NOT metabolized | Compound NOT metabolized | Compound metabolized | Compound NOT metabolized | Compound NOT metabolized | Compound NOT metabolized | Compound metabolized | – | – | – | – | – | – | – | – | – | –
C[C@]12CCC(=O)C=C1[C@@H]1C[C@@H]1[C@H]1[C@@H]3[C@@H]4C[C@@H]4[C@@]4(CCC(=O)O4)[C@@]3(C)CC[C@@H]12 [DROSPIRENONE] | – | Compound NOT metabolized | Compound NOT metabolized | – | Compound NOT metabolized | – | Compound metabolized | – | – | – | Compound NOT metabolized | Compound NOT metabolized | Compound NOT metabolized | Compound NOT metabolized | Compound NOT metabolized | Compound NOT metabolized | – | – | – | –
Cc1nc(-c2ccc(OCC(C)C)c(C#N)c2)sc1C(=O)O [FEBUXOSTAT] | – | Compound NOT metabolized | Compound NOT metabolized | Compound metabolized | – | Compound NOT metabolized | Compound NOT metabolized | Compound NOT metabolized | Compound NOT metabolized | Compound NOT metabolized | – | – | – | – | – | – | Compound NOT metabolized | Compound NOT metabolized | Compound NOT metabolized | –
COC1=CC(=O)C[C@@H](C)[C@]12Oc1c(Cl)c(OC)cc(OC)c1C2=O [GRISEOFULVIN] | Compound NOT metabolized | Compound NOT metabolized | Compound NOT metabolized | Compound metabolized | Compound NOT metabolized | Compound metabolized | Compound metabolized | – | – | Compound NOT metabolized | – | – | – | – | – | Compound NOT metabolized | – | – | Compound NOT metabolized | –
OCCOCCN1CCN(C2=Nc3ccccc3Sc3ccccc32)CC1 [QUETIAPINE] | Compound NOT metabolized | – | Compound NOT metabolized | – | Compound NOT metabolized | – | Compound NOT metabolized | Compound NOT metabolized | Compound NOT metabolized | Compound NOT metabolized | – | – | – | – | – | – | – | – | Compound NOT metabolized | Compound NOT metabolized
Nc1nc2ccc(OC(F)(F)F)cc2s1 [RILUZOLE] | Compound NOT metabolized | Compound NOT metabolized | Compound NOT metabolized | Compound metabolized | Compound NOT metabolized | Compound metabolized | Compound NOT metabolized | Compound NOT metabolized | Compound NOT metabolized | Compound NOT metabolized | – | – | – | – | – | Compound NOT metabolized | Compound NOT metabolized | Compound NOT metabolized | Compound NOT metabolized | Compound NOT metabolized
CN1C(C(=O)Nc2ccccn2)=C(O)c2sccc2S1(=O)=O [TENOXICAM] | Compound NOT metabolized | – | Compound NOT metabolized | Compound NOT metabolized | Compound NOT metabolized | Compound NOT metabolized | – | Compound NOT metabolized | – | – | – | – | – | – | – | – | – | Compound NOT metabolized | Compound NOT metabolized | Compound NOT metabolized
OC(CCN1CCCCC1)(c1ccccc1)C1CCCCC1 (centres undefined) [TRIHEXYPHENIDYL] | Compound NOT metabolized | Compound NOT metabolized | Compound NOT metabolized | – | – | Compound NOT metabolized | Compound NOT metabolized | Compound NOT metabolized | Compound NOT metabolized | – | – | – | – | – | – | – | – | Compound NOT metabolized | – | –
N#Cc1ccc2[nH]cc(CCCCN3CCN(c4ccc5oc(C(N)=O)cc5c4)CC3)c2c1 [VILAZODONE] | Compound NOT metabolized | Compound metabolized | Compound NOT metabolized | Compound metabolized | – | Compound metabolized | Compound metabolized | Compound NOT metabolized | Compound NOT metabolized | Compound NOT metabolized | – | – | – | – | – | – | – | Compound metabolized | Compound NOT metabolized | Compound NOT metabolized
